Measured values published in patent US10039753B2, “Imidazo[4,5-c]quinoline and imidazo[4,5-c][1,5]naphthyridine derivatives as LRRK2 inhibitors” (Pfizer Inc., priority 2015, dated 2018).
Structures can show the parent of a compound that is named as a salt.

Tests used:
[1] = biological target: T1, GST-tagged truncated LRRK2 (Homo sapiens, UniProt Q5S007); assay: LRRK2 Assay, Format 1 (Lantha Screen), WT; format: biochemical; settings: for IC50: Format 1, wild-type LRRK2, geometric mean of 2-4 determinations unless footnoted (a: ≥5 determinations; b: single determination; c: determined on trifluoroacetate salt)
T1 construct: GST-tagged truncated LRRK2 from Invitrogen (Cat # PV4874); GST; purchased Invitrogen PV4874
T1 sequence (Q5S007 970-2527 limits assumed): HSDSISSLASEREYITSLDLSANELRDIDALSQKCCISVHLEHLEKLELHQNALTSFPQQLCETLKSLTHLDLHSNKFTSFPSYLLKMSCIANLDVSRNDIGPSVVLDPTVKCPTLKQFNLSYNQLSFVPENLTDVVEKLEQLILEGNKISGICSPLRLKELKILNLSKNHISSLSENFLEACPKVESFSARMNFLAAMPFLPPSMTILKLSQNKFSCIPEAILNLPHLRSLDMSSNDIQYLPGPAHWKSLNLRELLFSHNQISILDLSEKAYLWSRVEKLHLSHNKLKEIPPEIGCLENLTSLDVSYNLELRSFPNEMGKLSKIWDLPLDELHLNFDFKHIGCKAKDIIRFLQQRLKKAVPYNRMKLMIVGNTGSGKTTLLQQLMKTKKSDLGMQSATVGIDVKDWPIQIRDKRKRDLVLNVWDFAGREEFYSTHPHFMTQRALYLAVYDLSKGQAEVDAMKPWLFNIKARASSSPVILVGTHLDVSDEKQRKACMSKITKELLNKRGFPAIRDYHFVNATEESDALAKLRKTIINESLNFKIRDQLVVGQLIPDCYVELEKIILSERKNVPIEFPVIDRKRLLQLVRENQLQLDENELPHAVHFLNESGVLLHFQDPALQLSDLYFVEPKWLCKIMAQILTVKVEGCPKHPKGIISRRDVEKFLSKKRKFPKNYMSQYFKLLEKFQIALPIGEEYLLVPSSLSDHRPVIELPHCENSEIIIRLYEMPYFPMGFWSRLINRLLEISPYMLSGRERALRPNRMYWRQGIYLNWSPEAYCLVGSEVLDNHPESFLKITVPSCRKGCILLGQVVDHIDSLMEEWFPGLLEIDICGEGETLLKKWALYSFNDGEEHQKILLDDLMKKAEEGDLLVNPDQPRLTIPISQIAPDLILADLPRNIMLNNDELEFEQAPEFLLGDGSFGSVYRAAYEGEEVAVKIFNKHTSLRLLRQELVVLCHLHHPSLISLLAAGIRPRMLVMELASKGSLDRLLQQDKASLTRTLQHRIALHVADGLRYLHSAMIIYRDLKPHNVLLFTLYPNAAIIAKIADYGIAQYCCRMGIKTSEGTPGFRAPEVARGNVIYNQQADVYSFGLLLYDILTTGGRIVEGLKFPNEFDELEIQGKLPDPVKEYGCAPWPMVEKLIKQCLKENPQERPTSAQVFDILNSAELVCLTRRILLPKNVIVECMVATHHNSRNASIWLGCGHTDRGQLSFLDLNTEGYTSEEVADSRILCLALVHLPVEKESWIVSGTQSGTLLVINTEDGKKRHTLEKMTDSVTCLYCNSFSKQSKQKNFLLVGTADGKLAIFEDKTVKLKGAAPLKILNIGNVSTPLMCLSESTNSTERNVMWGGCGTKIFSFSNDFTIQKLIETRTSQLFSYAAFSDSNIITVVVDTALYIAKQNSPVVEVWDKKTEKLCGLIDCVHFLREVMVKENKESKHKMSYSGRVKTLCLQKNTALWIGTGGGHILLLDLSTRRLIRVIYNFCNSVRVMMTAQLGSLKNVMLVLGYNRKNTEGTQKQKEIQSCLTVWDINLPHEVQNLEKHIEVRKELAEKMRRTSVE
Procedure: LRRK2 kinase activity was measured using Lantha Screen technology from Invitrogen. GST-tagged truncated LRRK2 from Invitrogen (Cat # PV4874) was incubated with a fluorescein-labeled peptide substrate based upon ezrin/radixin/moesin (ERM), also known as LRRKtide (Invitrogen cat # PR8976A), in the presence of a dose response of compound. Upon completion, the assay was stopped and detected with a terbium labeled anti-phospho-ERM antibody (Invitrogen, cat # PR8975A). […] Aliquots (3.5 μL) of the 100% DMSO dose response were mixed with 46.5 μL water then 1 μL of this mixture was added to the 3 μL substrate mix in the 384-well plate. The kinase reaction was started with 3 μL of a working solution of LRRK2 enzyme at a concentration of 4 μg/mL. […] The reaction was allowed to progress at room temperature for two hours and then stopped with the addition of 7 μL of detection buffer (20 mM Tris pH 7.6, 0.01% NP-40, 0.02% NaN3, 6 mM EDTA with 2 nM terbium labeled anti-phospho-ERM).

[2] = biological target: mutant G2019S LRRK2 (Homo sapiens, UniProt Q5S007, G2019S); assay: LRRK2 Assay, Format 1 (Lantha Screen), G2019S mutant
mutant G2019S LRRK2, sequence (Q5S007 970-2527 G2019S limits assumed): as the sequence (Q5S007 970-2527 limits assumed) above, with G1050S counted along it

Row | IC50 [1] | IC50 [2] | LRRK2 potency compared to Example 5 (its enantiomer) ([1]; qualitative statement referring to Table 3 data) | Compound
1 | 158 nM | 184 nM | – | F[C@H]1CC[C@@H](n2c(Cc3ccon3)nc3cnc4ccccc4c32)C1 [Example 16, 1-[(1R,3S)-3-fluorocyclopentyl]-2-(1,2-oxazol-3-ylmethyl)-1H-imidazo[4,5-c]quinoline]
2 | 125 nM | 132 nM | – | Cc1nc2cnc3ccc(Cl)cc3c2n1C1CCOCC1 [Example 17, 8-chloro-2-methyl-1-(tetrahydro-2H-pyran-4-yl)-1H-imidazo[4,5-c]quinoline]
3 | 153 nM | 250 nM | – | c1ccc2c(c1)ncc1nc(Cc3ccon3)n(C3CCOCC3)c12 [Example 18, 2-(1,2-oxazol-3-ylmethyl)-1-(tetrahydro-2H-pyran-4-yl)-1H-imidazo[4,5-c]quinoline]
4 | 195 nM | 174 nM | – | Cc1nc2cnc3ccc(C#N)cc3c2n1[C@H]1CC[C@@H](F)C1 [Example 20, 1-[(1S,3R)-3-fluorocyclopentyl]-2-methyl-1H-imidazo[4,5-c]quinoline-8-carbonitrile]
5 | 5.2 nM | 3.9 nM | – | C[C@@H]1C[C@H](n2c(Cc3ccon3)nc3cnc4ccc(C#N)cc4c32)CCO1 [Example 22, 1-[(2R,4R)-2-methyltetrahydro-2H-pyran-4-yl]-2-(1,2-oxazol-3-ylmethyl)-1H-imidazo[4,5-c]quinoline-8-carbonitrile]
6 | 72 nM | 62 nM | – | C[C@H]1C[C@H](n2c(Cc3ccon3)nc3cnc4ccc(C#N)cc4c32)CCO1 [Example 24, 1-[(2S,4R)-2-methyltetrahydro-2H-pyran-4-yl]-2-(1,2-oxazol-3-ylmethyl)-1H-imidazo[4,5-c]quinoline-8-carbonitrile]
7 | 56.3 nM | 30.8 nM | – | F[C@@H]1CC[C@H](n2c(Cc3ccon3)nc3cnc4ccc(Br)cc4c32)C1 [Example 25, 8-bromo-1-[(1S,3R)-3-fluorocyclopentyl]-2-(1,2-oxazol-3-ylmethyl)-1H-imidazo[4,5-c]quinoline, formate salt]
8 | 162 nM | 155 nM | – | F[C@H]1CC[C@@H](n2c(Cn3cncn3)nc3cnc4ccccc4c32)C1 [Example 26, 1-[(1R,3S)-3-fluorocyclopentyl]-2-(1H-1,2,4-triazol-1-ylmethyl)-1H-imidazo[4,5-c]quinoline]
9 | 188 nM | 118 nM | – | Cc1cn(Cc2nc3cnc4ccccc4c3n2[C@@H]2CC[C@H](F)C2)nn1 [Example 27, 1-[(1R,3S)-3-fluorocyclopentyl]-2-[(4-methyl-1H-1,2,3-triazol-1-yl)methyl]-1H-imidazo[4,5-c]quinoline, formate salt]
10 | 153 nM | 157 nM | – | F[C@H]1CC[C@@H](n2c(Cc3nc4ccccc4o3)nc3cnc4ccccc4c32)C1 [Example 28, 2-(1,3-benzoxazol-2-ylmethyl)-1-[(1R,3S)-3-fluorocyclopentyl]-1H-imidazo[4,5-c]quinoline]
11 | 164 nM | 226 nM | – | c1ccc2c(c1)ncc1nc(Cc3noc4ccccc34)n(C3CCOCC3)c12 [Example 29, 2-(1,2-benzoxazol-3-ylmethyl)-1-(tetrahydro-2H-pyran-4-yl)-1H-imidazo[4,5-c]quinoline]
12 | 120 nM | 146 nM | – | c1ccc2c(c1)ncc1nc(Cn3cncn3)n(C3CCOCC3)c12 [Example 30, 1-(tetrahydro-2H-pyran-4-yl)-2-(1H-1,2,4-triazol-1-ylmethyl)-1H-imidazo[4,5-c]quinoline]
13 | 126 nM | 151 nM | – | Cc1cn2cc(Cc3nc4cnc5ccccc5c4n3C3CCOCC3)nc2s1 [Example 31, 2-[(2-methylimidazo[2,1-b][1,3]thiazol-6-yl)methyl]-1-(tetrahydro-2H-pyran-4-yl)-1H-imidazo[4,5-c]quinoline]
14 | 98.6 nM | 121 nM | – | Cc1cn(Cc2nc3cnc4ccccc4c3n2C2CCOCC2)nn1 [Example 32, 2-[(4-methyl-1H-1,2,3-triazol-1-yl)methyl]-1-(tetrahydro-2H-pyran-4-yl)-1H-imidazo[4,5-c]quinoline]
15 | 124 nM | 172 nM | – | COCc1cn(Cc2nc3cnc4ccccc4c3n2C2CCOCC2)nn1 [Example 33, 2-{[4-(methoxymethyl)-1H-1,2,3-triazol-1-yl]methyl}-1-(tetrahydro-2H-pyran-4-yl)-1H-imidazo[4,5-c]quinoline]
16 | 111 nM | 139 nM | – | c1ccc2oc(Cc3nc4cnc5ccccc5c4n3C3CCOCC3)nc2c1 [Example 34, 2-(1,3-benzoxazol-2-ylmethyl)-1-(tetrahydro-2H-pyran-4-yl)-1H-imidazo[4,5-c]quinoline]

Row | IC50 [1] | IC50 [2] | LRRK2 potency compared to Example 5 (its enantiomer) ([1]; qualitative statement referring to Table 3 data) | Compound
17 | 152 nM | 211 nM | – | c1ccc2c(c1)ncc1nc(Cn3cnnn3)n(C3CCOCC3)c12 [Example 35, 1-(tetrahydro-2H-pyran-4-yl)-2-(1H-tetrazol-1-ylmethyl)-1H-imidazo[4,5-c]quinoline]
18 | 85.5 nM | 90.5 nM | – | c1ccc2c(c1)ncc1nc(Cc3cscn3)n(C3CCOCC3)c12 [Example 36, 1-(tetrahydro-2H-pyran-4-yl)-2-(1,3-thiazol-4-ylmethyl)-1H-imidazo[4,5-c]quinoline, formate salt]
19 | 133 nM | 143 nM | – | COc1ccc(Cc2nc3cnc4ccccc4c3n2C2CCOCC2)nc1 [Example 37, 2-[(5-methoxypyridin-2-yl)methyl]-1-(tetrahydro-2H-pyran-4-yl)-1H-imidazo[4,5-c]quinoline]
20 | 36 nM | 41.6 nM | – | Cc1nn2cc(Cc3nc4cnc5ccccc5c4n3C3CCOCC3)nc2s1 [Example 38, 2-[(2-methylimidazo[2,1-b][1,3,4]thiadiazol-6-yl)methyl]-1-(tetrahydro-2H-pyran-4-yl)-1H-imidazo[4,5-c]quinoline]
21 | 103 nM | 157 nM | – | Cc1cc(Cc2nc3cnc4ccccc4c3n2C2CCOCC2)no1 [Example 39, 2-[(5-methyl-1,2-oxazol-3-yl)methyl]-1-(tetrahydro-2H-pyran-4-yl)-1H-imidazo[4,5-c]quinoline]
22 | 141 nM | 120 nM | – | CC(C)(O)c1cn(Cc2nc3cnc4ccccc4c3n2C2CCOCC2)nn1 [Example 40, 2-(1-{[1-(tetrahydro-2H-pyran-4-yl)-1H-imidazo[4,5-c]quinolin-2-yl]methyl}-1H-1,2,3-triazol-4-yl)propan-2-ol]
23 | 124 nM | 93.5 nM | – | c1ccc2c(c1)ncc1nc(Cn3nnc4ccccc43)n(C3CCOCC3)c12 [Example 41, 2-(1H-benzotriazol-1-ylmethyl)-1-(tetrahydro-2H-pyran-4-yl)-1H-imidazo[4,5-c]quinoline]
24 | 51.2 nM | 55.9 nM | – | c1ccc2c(c1)ncc1nc(Cn3cc(C4CC4)nn3)n(C3CCOCC3)c12 [Example 42, 2-[(4-cyclopropyl-1H-1,2,3-triazol-1-yl)methyl]-1-(tetrahydro-2H-pyran-4-yl)-1H-imidazo[4,5-c]quinoline]
25 | 119 nM | 110 nM | – | FC(F)(F)c1cnn(Cc2nc3cnc4ccccc4c3n2C2CCOCC2)c1 [Example 43, 1-(tetrahydro-2H-pyran-4-yl)-2-{[4-(trifluoromethyl)-1H-pyrazol-1-yl]methyl}-1H-imidazo[4,5-c]quinoline]
26 | 62.5 nM | 72.2 nM | – | CC(C)c1cn(Cc2nc3cnc4ccccc4c3n2C2CCOCC2)nn1 [Example 44, 2-{[4-(propan-2-yl)-1H-1,2,3-triazol-1-yl]methyl}-1-(tetrahydro-2H-pyran-4-yl)-1H-imidazo[4,5-c]quinoline]
27 | 61.1 nM | 52.9 nM | – | c1ccc2nn(Cc3nc4cnc5ccccc5c4n3C3CCOCC3)cc2c1 [Example 45, 2-(2H-indazol-2-ylmethyl)-1-(tetrahydro-2H-pyran-4-yl)-1H-imidazo[4,5-c]quinoline]
28 | 186 nM | 90.8 nM | – | FC1(F)CCCCC1n1c(Cc2ccon2)nc2cnc3ccccc3c21 (centres unmarked) [Example 46, 1-(2,2-difluorocyclohexyl)-2-(1,2-oxazol-3-ylmethyl)-1H-imidazo[4,5-c]quinoline]
29 | 103 nM | 80.6 nM | – | CC1(C)CC(n2c(Cc3ccon3)nc3cnc4ccccc4c32)CCO1 (centres unmarked) [Example 47, 1-(2,2-dimethyltetrahydro-2H-pyran-4-yl)-2-(1,2-oxazol-3-ylmethyl)-1H-imidazo[4,5-c]quinoline]
30 | 194 nM | 118 nM | – | FC1(F)CCC(n2c(Cc3ccon3)nc3cnc4ccccc4c32)CC1 [Example 48, 1-(4,4-difluorocyclohexyl)-2-(1,2-oxazol-3-ylmethyl)-1H-imidazo[4,5-c]quinoline]
31 | 127 nM | 57.7 nM | – | c1ccc2c(c1)ncc1nc(Cc3ccon3)n(C3CCCCC3)c12 [Example 50, 1-cyclohexyl-2-(1,2-oxazol-3-ylmethyl)-1H-imidazo[4,5-c]quinoline]
32 | 109 nM | 49.3 nM | significantly less potent | Cc1nc(Cc2nc3cnc4ccc(Cl)cc4c3n2[C@H]2CCO[C@@H](C)C2)no1 [Example 51, 8-chloro-2-[(5-methyl-1,2,4-oxadiazol-3-yl)methyl]-1-[(2S,4S)-2-methyltetrahydro-2H-pyran-4-yl]-1H-imidazo[4,5-c]quinoline]
